Columns and labels:
[1] = Inhibitory concentration against human p21 […] cell (p21+/+) proliferation
[2] = Inhibitory concentration against human p21 proficient cell (p21+/+) proliferation
[3] = Inhibitory concentration against human p21 deficient cell (p21-/-) proliferation

SMILES | IC50 [1] | IC50 [2] | IC50 [3]
O=C(c1cccs1)c1cnn2c(-c3cccc(NC(=O)C4CC4)c3)ccnc12 | 12 µM |  | 
COc1cc(-c2nc3sc4c(c3c(=O)[nH]2)CCCC4)cc(OC)c1OC | > 20 µM |  | 
COc1ccc(-c2nc3sc4c(c3c(=O)[nH]2)CCCC4)cc1OC |  | > 20 µM | > 20 µM
